From patent US8173635B2, “Kinase inhibitors” (Vertex Pharmaceuticals Incorporated, priority 2007, dated 2012)

Experiments:
Type in all cases: biochemical
PKC theta kinase = PKC theta kinase (Homo sapiens, UniProt Q04759); experiment: PKC theta kinase inhibition, coupled-enzyme NADH absorbance assay (Ki); conditions: 240 μM ATP, 18 nM PKC theta, 30° C.; read-out: Ki PKC theta
Protocol: (§1) An assay buffer solution was prepared which consisted of 100 mM HEPES (pH 7.5), 10 mM MgCl2, 25 mM NaCl, 0.1 mM EDTA and 0.01% Brij. […] To 60 μL of this enzyme buffer, in a 384 well plate, was added 2 μL of VRT stock solution in DMSO. The mixture was allowed to equilibrate for 10 mins at 30° C. […] Ki values were calculated from initial rate data by non-linear regression using the Prism software package (Prism 4.0a, Graphpad Software, San Diego, Calif.).

PKC delta kinase = PKC delta kinase (Homo sapiens, UniProt Q05655); experiment: PKC delta kinase inhibition, coupled-enzyme NADH absorbance assay (Ki); conditions: 150 μM ATP, 46 nM PKC delta, 30° C.; read-out: Ki PKC delta
Protocol: as §1, with “To 16” for “To 60”, “added 1” for “added 2”

PKC alpha kinase = PKC alpha kinase (Homo sapiens, UniProt P17252); experiment: PKC alpha kinase inhibition, coupled-enzyme NADH absorbance assay (Ki); conditions: 130 μM ATP, 4.5 nM PKC alpha, 30° C.; read-out: Ki PKC alpha
Protocol: An assay buffer solution was prepared which consisted of 100 mM HEPES (pH 7.5), 10 mM MgCl2, 25 mM NaCl, 0.1 mM EDTA, 100 μM CaCl2 and 0.01% Brij. […] To 16 μL of this enzyme buffer, in a 384 well plate, was added 1 μL of VRT stock solution in DMSO. The mixture was allowed to equilibrate for 10 mins at 30° C. The enzyme reaction was initiated by the addition of 16 μL stock ATP solution prepared in assay buffer to a final assay concentration of 130 μM. Initial rate data was determined from the rate of change of absorbance at 340 nm (corresponding to stoichiometric consumption of NADH) using a Molecular Devices Spectramax plate reader (Sunnyvale, Calif.) over 15 mins at 30° C. […] Ki values were calculated from initial rate data by non-linear regression using the Prism software package (Prism 4.0a, Graphpad Software, San Diego, Calif.).

Chain of PKC delta kinase (Q05655 whole entry): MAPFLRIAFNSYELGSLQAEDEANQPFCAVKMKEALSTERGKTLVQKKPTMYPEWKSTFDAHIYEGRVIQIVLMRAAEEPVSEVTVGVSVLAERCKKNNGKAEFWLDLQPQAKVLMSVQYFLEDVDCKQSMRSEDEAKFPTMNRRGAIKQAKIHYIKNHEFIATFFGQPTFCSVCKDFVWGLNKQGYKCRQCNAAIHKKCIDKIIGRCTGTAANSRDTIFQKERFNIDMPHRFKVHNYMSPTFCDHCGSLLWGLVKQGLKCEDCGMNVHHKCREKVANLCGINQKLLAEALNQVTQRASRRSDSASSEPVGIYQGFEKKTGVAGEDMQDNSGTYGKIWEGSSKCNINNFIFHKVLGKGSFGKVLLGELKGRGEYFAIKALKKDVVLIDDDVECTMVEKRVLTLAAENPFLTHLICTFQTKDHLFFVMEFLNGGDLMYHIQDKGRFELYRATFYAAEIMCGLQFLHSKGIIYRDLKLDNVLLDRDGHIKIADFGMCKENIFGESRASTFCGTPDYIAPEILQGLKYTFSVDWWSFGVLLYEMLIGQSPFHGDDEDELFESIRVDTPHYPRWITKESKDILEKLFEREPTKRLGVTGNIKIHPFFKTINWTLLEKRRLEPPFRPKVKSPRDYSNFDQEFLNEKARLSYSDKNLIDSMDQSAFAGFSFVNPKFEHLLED
Chain of PKC theta kinase (Q04759 whole entry): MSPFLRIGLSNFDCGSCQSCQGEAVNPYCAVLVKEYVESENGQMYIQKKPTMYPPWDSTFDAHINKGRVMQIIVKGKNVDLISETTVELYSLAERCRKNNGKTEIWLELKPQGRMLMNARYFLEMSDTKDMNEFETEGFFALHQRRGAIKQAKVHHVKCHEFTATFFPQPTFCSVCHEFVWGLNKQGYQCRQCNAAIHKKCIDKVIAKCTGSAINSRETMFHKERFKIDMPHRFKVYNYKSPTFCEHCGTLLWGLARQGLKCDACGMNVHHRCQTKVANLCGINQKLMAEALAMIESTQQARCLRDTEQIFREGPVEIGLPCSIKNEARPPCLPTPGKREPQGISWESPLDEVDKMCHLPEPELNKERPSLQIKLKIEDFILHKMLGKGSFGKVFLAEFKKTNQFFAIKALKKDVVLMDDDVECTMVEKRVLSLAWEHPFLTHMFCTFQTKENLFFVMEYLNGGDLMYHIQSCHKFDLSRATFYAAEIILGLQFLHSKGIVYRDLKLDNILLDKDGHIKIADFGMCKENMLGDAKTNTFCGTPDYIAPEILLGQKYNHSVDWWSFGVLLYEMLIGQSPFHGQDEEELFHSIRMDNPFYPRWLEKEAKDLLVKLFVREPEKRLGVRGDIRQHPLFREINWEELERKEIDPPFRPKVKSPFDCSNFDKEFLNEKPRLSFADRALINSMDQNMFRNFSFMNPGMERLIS

| Compound | Ki (PKC theta kinase) | Ki (PKC delta kinase) | Ki (PKC alpha kinase) |
| --- | --- | --- | --- |
| CC(C)(C#N)c1cc(Br)cc(-c2ccnc3[nH]ncc23)c1 [Compound 18] | < 50 nM | < 2800 nM | < 2800 nM |
| N#C[C@]1(c2cccc(-c3ccnc4[nH]ncc34)c2)C[C@H](N)C1 [Compound 229] | < 50 nM | < 500 nM | < 500 nM |
| NCC1(c2cccc(-c3ccnc4[nH]nc(Cl)c34)c2)CCC1 [Compound 260] | < 50 nM | < 50 nM | < 500 nM |
| CCC(C)(C#N)c1cc(C=O)cc(-c2ccnc3[nH]ncc23)c1 (centres unmarked) [Compound 120] | < 500 nM | > 2000 nM | > 1200 nM |
| CCC(C)(C#N)c1cc(Br)cc(-c2ccnc3[nH]ncc23)c1 (centres unmarked) [Compound 30] | < 500 nM | < 2800 nM | < 2800 nM |
| NCC1(c2cc(N)cc(-c3ccnc4[nH]ncc34)c2)CCC1 [Compound 190] | < 500 nM | > 2000 nM | > 1200 nM |
| CCCCNC(CC)c1cccc(-c2ccnc3[nH]ncc23)c1 (centres unmarked) [Compound 247] | < 500 nM | > 1200 nM | > 1200 nM |
| OCC1(c2cccc(-c3ccnc4[nH]ncc34)c2)CCNC1 (centres unmarked) [Compound 196] | < 50 nM | < 2800 nM | < 2800 nM |
| C/C=C\c1cc(-c2ccnc3[nH]ncc23)cc(C(C)(C#N)CC)c1 (centres unmarked) [Compound 94] | < 500 nM | > 2800 nM | > 2800 nM |
| CCC(C)(C#N)c1cc(CCN)cc(-c2ccnc3[nH]ncc23)c1 (centres unmarked) [Compound 127] | < 500 nM | > 2000 nM | > 1200 nM |
| COCC(C)(C#N)c1cccc(-c2ccnc3[nH]ncc23)c1 (centres unmarked) [Compound 95] | < 500 nM | > 2800 nM | < 2800 nM |
| CCC(C)(C#N)c1cc(-c2ccnc3[nH]ncc23)cc(C(F)(F)F)c1 (centres unmarked) [Compound 93] | < 500 nM | < 2800 nM | < 2800 nM |
| CNCc1cc(-c2ccnc3[nH]ncc23)cc(C(C)(C)C#N)c1 [Compound 75] | < 2800 nM | > 2800 nM | > 2800 nM |
| CCC1(c2cccc(-c3ccnc4[nH]ncc34)c2)CCNC1 (centres unmarked) [Compound 194] | < 50 nM | < 500 nM | < 500 nM |
| CCC(C#N)c1cc(C)cc(-c2ccnc3[nH]ncc23)c1 (centres unmarked) [Compound 86] | < 500 nM | > 2800 nM | < 2800 nM |
| Cc1cnc2[nH]ncc2c1-c1cccc(C(C)(C)C#N)c1 [Compound 219] | > 700 nM | > 2000 nM | > 1200 nM |
| COCC[C@](C)(CN)c1cccc(-c2ccnc3[nH]nc(C(F)(F)F)c23)c1 [Compound 287] | < 50 nM | < 2800 nM | < 500 nM |
| Cc1cc(-c2ccnc3[nH]ncc23)cc(C2(C#N)CCC2)c1 [Compound 85] | < 50 nM | > 2800 nM | < 2800 nM |
| N#CC1(c2cc(CCCO)cc(-c3ccnc4[nH]nc(C(F)(F)F)c34)c2)CC1 [Compound 312] | < 50 nM | < 2800 nM | < 500 nM |
| N#CC1(c2cc(CCCN)cc(-c3ccnc4[nH]nc(C(F)(F)F)c34)c2)CC1 [Compound 283, 1-(3-(3-aminopropyl)-5-(3-(trifluoromethyl)-1H-pyrazolo[3,4-b]pyridin-4-yl)phenyl)cyclopropanecarbonitrile] | < 50 nM | < 2800 nM | < 500 nM |
| NC[C@]1(c2cccc(-c3ccnc4[nH]ncc34)c2)CC[C@H](O)CC1 [Compound 183] | < 500 nM | < 2800 nM | > 1200 nM |

| Compound | Ki (PKC theta kinase) | Ki (PKC delta kinase) | Ki (PKC alpha kinase) |
| --- | --- | --- | --- |
| C=CCc1cc(CNC)cc(-c2ccnc3[nH]ncc23)c1 [Compound 63] | < 500 nM | – | – |
| CCC(C#N)(CC)c1cccc(-c2ccnc3[nH]ncc23)c1 [Compound 68] | < 500 nM | – | < 2800 nM |
| CCC(C)(CN)c1cc(-c2ccnc3[nH]ncc23)cc(C(F)(F)CCC2CCCCC2)c1 (centres unmarked) [Compound 180] | > 700 nM | > 2000 nM | > 1200 nM |
| CC(C)(CN)c1cc(-c2ccnc3[nH]ncc23)cc(N2CCCCC2)c1 [Compound 33] | > 2800 nM | – | – |
| C=C(C)c1cc(-c2ccnc3[nH]ncc23)cc(C(C)(C)C#N)c1 [Compound 65] | < 500 nM | – | – |
| CC(C)(C#N)c1cc(-c2ccnc3[nH]ncc23)cc(N2CCCCC2)c1 [Compound 9] | < 2800 nM | – | – |
| CC(C)(C#N)c1cc(NC2CNC2)cc(-c2ccnc3[nH]ncc23)c1 [Compound 14] | < 500 nM | – | – |
| CC(C)(C#N)c1cc(-c2ccnc3[nH]ncc23)cc(C2CCCCC2)c1 [Compound 58] | < 2800 nM | – | – |
| OC1CCc2ccc(-c3ccnc4[nH]ncc34)cc21 (centres unmarked) [Compound 29] | > 2800 nM | – | – |
| CC(C)C(O)c1cc(-c2ccnc3[nH]ncc23)cc(C(C)(C)CN)c1 (centres unmarked) [Compound 43] | < 2800 nM | – | – |
| CC(C)(CN)c1cc(C2=CCCCC2)cc(-c2ccnc3[nH]ncc23)c1 [Compound 37] | < 2800 nM | – | – |
| Cc1cc(-c2ccnc3[nH]ncc23)cc(C2(CN)CCCC2)c1 [Compound 189] | < 50 nM | – | < 2800 nM |
| CC(C)(CN)c1cc(-c2ccccc2)cc(-c2ccnc3[nH]ncc23)c1 [Compound 35] | < 2800 nM | – | – |
| N#CCc1cccc(-c2ccnc3[nH]ncc23)c1 [Compound 23] | < 500 nM | – | – |
| CC(C)(C#N)c1cc(NC2CCNCC2)cc(-c2ccnc3[nH]ncc23)c1 [Compound 20] | < 500 nM | – | – |
| CCCc1cc(-c2ccnc3[nH]nc(C(F)(F)F)c23)cc(C2(C#N)CC2)c1 [Compound 313] | – | > 1200 nM | > 1200 nM |
| CC(C)(C#N)c1cccc(-c2ccnc3[nH]ncc23)c1 [Compound 4, 2-(3-(1H-pyrazolo[3,4-b]pyridin-4-yl)phenyl)-2-methylpropanenitrile] | < 50 nM | < 2800 nM | – |
| N#CC1(c2cccc(-c3ccnc4[nH]ncc34)c2)CCNCC1 [Compound 6] | < 500 nM | < 2800 nM | – |
| N#CC1(c2cccc(-c3ccnc4[nH]ncc34)n2)CCNCC1 [Compound 2] | < 50 nM | < 500 nM | – |
| CNCc1cc(Br)cc(-c2ccnc3[nH]ncc23)c1 [Compound 25] | < 500 nM | – | – |
| CC(C)(C#N)c1cc(-c2ccnc3n[nH]cc23)ccc1Br [Compound 83] | < 2800 nM | – | – |

| Compound | Ki (PKC theta kinase) | Ki (PKC delta kinase) | Ki (PKC alpha kinase) |
| --- | --- | --- | --- |
| Cc1cc(-c2ccnc3[nH]ncc23)cc(C(C)(C)C#N)c1 [Compound 5] | < 50 nM | < 2800 nM | – |
| CC(=O)N1CCN(c2cc(-c3ccnc4[nH]ncc34)cc(C(C)(C)C#N)c2)CC1 [Compound 7] | > 2800 nM | > 2800 nM | – |
| CC(C)(CN)c1cc(-c2ccc[nH]2)cc(-c2ccnc3[nH]ncc23)c1 [Compound 38] | < 500 nM | – | – |
| CC(C)(C)OC(=O)NCCNc1cc(-c2ccnc3[nH]ncc23)cc(C(C)(C)C#N)c1 [Compound 81] | < 2800 nM | – | – |
| CC(C)(C#N)c1cc(Nc2ccccc2)cc(-c2ccnc3[nH]ncc23)c1 [Compound 10] | < 500 nM | > 2800 nM | – |
| CC(C)(C#N)c1cc(-c2ccccc2)cc(-c2ccnc3[nH]ncc23)c1 [Compound 53, 2-(5-(1H-pyrazolo[3,4-b]pyridin-4-yl)biphenyl-3-yl)-2-methylpropanenitrile] | < 2800 nM | – | – |
| C/C=C/c1cc(CNC)cc(-c2ccnc3[nH]ncc23)c1 [Compound 60] | < 2800 nM | – | – |
| N#CC1(c2cccc(-c3ccnc4[nH]ncc34)n2)CCNC1 (centres unmarked) [Compound 3] | < 50 nM | < 500 nM | – |
| O=C1CCc2ccc(-c3ccnc4[nH]ncc34)cc21 [Compound 28] | < 500 nM | – | – |
| O=C1CCc2cc(-c3ccnc4[nH]ncc34)ccc21 [Compound 26] | < 2800 nM | – | – |
| CC(C)(C#N)c1cc(NCc2ccccc2)cc(-c2ccnc3[nH]ncc23)c1 [Compound 12] | < 2800 nM | – | – |
| CC(C)(C#N)c1cc(C2=CCCCC2)cc(-c2ccnc3[nH]ncc23)c1 [Compound 56] | > 2800 nM | – | – |
| CC(C)(C#N)c1cc(-c2ccnc3[nH]ncc23)cc(N2CCNCC2)c1 [Compound 8] | < 500 nM | > 2800 nM | – |
| CC(C)(C#N)c1cc(NCCCNC(=O)OCc2ccccc2)cc(-c2ccnc3[nH]ncc23)c1 [Compound 82] | < 2800 nM | – | – |
| CC(C)(C#N)c1cc(C(=O)c2ccccc2)cc(-c2ccnc3[nH]ncc23)c1 [Compound 16] | < 2800 nM | – | – |
| OC1CCc2cc(-c3ccnc4[nH]ncc34)ccc21 (centres unmarked) [Compound 27] | < 2800 nM | – | – |
| CC(C)(C#N)c1cc(-c2ccnc3[nH]ncc23)cc(C(O)c2ccccc2)c1 (centres unmarked) [Compound 15] | < 2800 nM | – | – |
| CC(=O)c1cc(-c2ccnc3[nH]ncc23)cc(C(C)(C)C#N)c1 [Compound 24] | < 500 nM | – | – |
| C#Cc1cc(-c2ccnc3[nH]ncc23)cc(C(C)(C)C#N)c1 [Compound 61] | < 500 nM | – | – |
